ChEMBL document CHEMBL1139978, “Synthesis and radiopharmacological characterization of [11C]AL-438 as a nonsteroidal ligand for imaging brain glucocorticoid receptors” (Bioorg Med Chem Lett, 2007)

Legend:
[1] = biological target: T1, Glucocorticoid receptor (Rattus norvegicus, UniProt P06536); assay: Binding affinity to rat glucocorticoid receptor
T1 sequence (P06536 whole entry): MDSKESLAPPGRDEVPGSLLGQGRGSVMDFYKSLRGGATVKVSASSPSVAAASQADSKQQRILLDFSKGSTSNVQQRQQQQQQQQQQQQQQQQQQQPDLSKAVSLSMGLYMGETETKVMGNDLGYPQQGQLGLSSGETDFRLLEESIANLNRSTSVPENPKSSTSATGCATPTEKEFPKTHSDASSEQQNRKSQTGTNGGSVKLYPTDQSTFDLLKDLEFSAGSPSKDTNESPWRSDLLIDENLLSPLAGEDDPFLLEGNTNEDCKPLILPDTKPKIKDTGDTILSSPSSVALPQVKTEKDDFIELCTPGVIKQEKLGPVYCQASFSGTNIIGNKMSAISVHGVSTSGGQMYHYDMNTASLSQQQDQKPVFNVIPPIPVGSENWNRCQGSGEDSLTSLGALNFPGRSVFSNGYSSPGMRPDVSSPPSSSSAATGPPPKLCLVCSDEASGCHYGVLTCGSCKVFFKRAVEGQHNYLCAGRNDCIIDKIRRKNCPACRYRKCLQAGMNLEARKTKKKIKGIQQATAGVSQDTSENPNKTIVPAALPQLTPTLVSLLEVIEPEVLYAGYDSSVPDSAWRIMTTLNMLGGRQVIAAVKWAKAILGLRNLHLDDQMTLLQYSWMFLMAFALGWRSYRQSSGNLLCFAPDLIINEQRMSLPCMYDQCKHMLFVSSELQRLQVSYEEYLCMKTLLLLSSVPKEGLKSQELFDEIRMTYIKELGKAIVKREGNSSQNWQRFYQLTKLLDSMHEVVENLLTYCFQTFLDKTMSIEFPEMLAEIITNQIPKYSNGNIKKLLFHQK

[2] = biological target: Progesterone receptor (Rattus norvegicus, UniProt Q63449); assay: Binding affinity to progesterone receptor
Sequence of Progesterone receptor (Q63449 whole entry): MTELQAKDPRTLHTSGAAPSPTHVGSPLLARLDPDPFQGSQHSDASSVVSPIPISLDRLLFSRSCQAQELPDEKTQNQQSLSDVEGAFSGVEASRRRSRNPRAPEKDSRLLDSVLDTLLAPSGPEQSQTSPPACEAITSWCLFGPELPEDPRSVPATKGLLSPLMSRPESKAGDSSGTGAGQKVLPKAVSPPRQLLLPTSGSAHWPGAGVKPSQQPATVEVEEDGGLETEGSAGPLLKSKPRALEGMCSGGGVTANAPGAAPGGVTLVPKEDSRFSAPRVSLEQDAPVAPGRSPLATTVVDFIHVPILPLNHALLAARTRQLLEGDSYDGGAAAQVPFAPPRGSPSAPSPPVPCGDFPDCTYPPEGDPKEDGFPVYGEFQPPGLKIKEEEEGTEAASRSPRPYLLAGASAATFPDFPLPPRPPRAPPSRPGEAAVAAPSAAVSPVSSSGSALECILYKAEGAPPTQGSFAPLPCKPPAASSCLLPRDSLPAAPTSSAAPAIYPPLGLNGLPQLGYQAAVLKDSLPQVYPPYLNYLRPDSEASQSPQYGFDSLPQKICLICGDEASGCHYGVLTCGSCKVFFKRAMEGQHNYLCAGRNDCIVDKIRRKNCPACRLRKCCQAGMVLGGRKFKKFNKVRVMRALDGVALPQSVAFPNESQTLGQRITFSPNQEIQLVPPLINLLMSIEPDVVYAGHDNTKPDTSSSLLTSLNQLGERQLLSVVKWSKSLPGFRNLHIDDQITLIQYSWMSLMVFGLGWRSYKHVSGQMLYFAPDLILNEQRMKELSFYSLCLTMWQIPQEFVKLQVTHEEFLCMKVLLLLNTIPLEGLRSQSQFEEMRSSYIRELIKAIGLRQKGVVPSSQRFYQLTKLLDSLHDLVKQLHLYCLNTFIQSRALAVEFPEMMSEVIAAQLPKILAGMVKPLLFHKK

EC50 [1]: 7.94 nM
EC50 [2]: 126 nM
Compound: C=CCC1Oc2cccc(OC)c2-c2ccc3c(c21)C(C)=CC(C)(C)N3 (configuration not stated) [AL-43]
